“Also recorded” adds a separate entry of the source. Where two headings read alike, the source gives them in different places.
What was measured:
[1] = Plasma protein binding (equilibrium dialysis); type: in vitro ADME; conditions: mouse plasma
Protocol: Plasma protein binding experiments: In brief, a 96-well equilibrium dialysis apparatus was used to determine the free fraction in plasma for each compound (HT Dialysis LLC, Gales Ferry, CT, USA). Membranes (12-14 kDa cutoff) were conditioned in deionised H2O for 60 min, followed by conditioning in 80:20 deionised H2O/EtOH for 20 min, and then rinsed in isotonic buffer before use. Female CD1 mouse plasma was removed from the freezer and allowed to thaw on the day of experiment. Thawed plasma was then centrifuged (Allegra […], Beckman Coulter, USA), spiked with test compound (10 μg g^-1), and 150 μL aliquots (n=6 replicate determinations) loaded into the 96-well equilibrium dialysis plate. Dialysis against isotonic buffer (150 μL) was carried out for 5 h in a temperature-controlled incubator at ∼37 °C (Barworld Scientific Ltd., UK) using an orbital microplate shaker at 125 rpm (Barworld Scientific). At the end of the incubation period, aliquots of plasma or buffer were transferred to micronic tubes (Micronic B.V., the Netherlands), and the composition in each tube was balanced with control fluid such that the volume of buffer to plasma is the same. Sample extraction was performed by the addition of 400 μL MeCN containing an appropriate internal standard. Samples were allowed to mix for 1 min and then centrifuged at 3000 rpm in 96-well blocks for 15 min (Allegra […], Beckman Coulter, USA). All samples were analysed by UPLC-MS/MS on a Quattro Premier XE Mass Spectrometer (Waters Corp.). The unbound fraction was determined as the ratio of the peak area in buffer to that in plasma.

[2] = In vivo pharmacokinetics in mice; design: species or system female NMRI mice; conditions: for Tmax: female, NMRI; for Tmax / Cmax / half-life / AUC(0-t): mouse, whole blood, blood; for AUC(0-t): read-out: AUC(0–8) (converted)
Protocol: In vivo pharmacokinetics in mice: Compounds 1 and 28 were dosed orally by gavage as a solution at 5 mg free base per kg or 20 mg free base per kg, respectively (dose volume: 5 or 10 mL kg^−1, dose vehicle: 5 % DMSO, 40 % PEG400, 55 % distilled H2O) to female NMRI mice (n=3). Compounds 28, 38, and 56 were dosed as a bolus solution intraperitoneally at 10 (56) or 20 (28 and 38) mg free base per kg (dose volume: 10 mL kg^−1, dose vehicle: 5 % DMSO, 40 % PEG400, 55 % sterile H2O) to female NMRI mice (n=3). Female NMRI mice were chosen, as these represent the sex and strain used for the stage-1 and stage-2 HAT efficacy models. Blood samples were taken from each mouse at 5 (i.p. only), 15 and 30 min, 1, 2, 4, 6 and 8 h post-dose and mixed with two volumes of distilled H2O. After suitable sample preparation, the concentration of each compound in blood was determined by UPLC–MS/MS using a Quattro Premier XE (Waters, USA). Pharmacokinetic parameters were derived from the mean blood concentration time curve using PKsolutions software ver. 2.0 (Summit Research Services, USA).

[3] = test system: T. brucei bloodstream-stage cells; assay: Static–cidal (SC) assay; type: cell-based, Trypanosoma brucei brucei; conditions: for EC50: 48 h
Protocol: Determination of cidality against T. brucei bloodstream-stage cells was performed using a static–cidal (SC) assay as previously reported.[26] Briefly, bloodstream-form trypanosomes were seeded into 384-well plates at 4×10^5 mL^−1 (50 μL per well), followed by immediate addition of resazurin (50 μM final) to one of the plates, and all plates were incubated at 37 °C, 5 % CO2. After 4 h the t0 plate was read using a PerkinElmer Victor 3 plate reader (λex=528 nm, λem=590 nm). The second plate was processed in the same manner 20 h later, and at 44 h the last plate was processed. The minimum cidal concentration (MCC) is defined as the lowest concentration of drug that results in a decrease of resorufin signal over time. For dose–response curves from this assay either a monophasic or a biphasic equation was used, depending on which one provided the best fit. For monophasic fits, the following four-parametric equation [Eq. (1)] was used:
in which A=percent inhibition at bottom, B=percent inhibition at top, C=EC50, D=slope, x=inhibitor concentration, and y=percent inhibition. Equation (2) was used for biphasic fits:
for which A=percent inhibition at mid-plateau, B=slope, C=log[SC EC50(1)], D=log[SC EC50(2)]. Thus SC EC50(1) is the EC50 for the first phase of the curve, and SC EC50(2) is that for the second phase. Inhibition at the bottom of the curve is fixed at 0 % and at the top, 100 %.

[4] = po, 5 mg kg^−1, female NMRI mice
[5] = ip, 20 mg kg^−1, female NMRI mice
[6] = po, 20 mg kg^−1, female NMRI mice

SMILES: CC(c1ccccc1)n1c(=O)[nH]c2ncc(-c3ccc(F)cc3)nc21 (stereo not drawn) [Compound 1]
- protein binding (unbound) [1]: 0.3 % unbound
- Tmax ([2]; po, 5 mg/kg, 5 mg kg^−1, female NMRI mice): ~120 min
- Cmax [2, 4]: 110 ng/mL
- half-life [2, 4]: 180 min
- AUC(0-t) [2, 4]: 600 ng·h/mL

SMILES: O=c1[nH]c2ncc(-c3ccccc3CO)nc2n1C1CCCCC1 [Compound 28]
- EC50 ([3]; Trypanosoma brucei, static cidal EC50, first site/phase, read-out: SC EC50(1)): 100 nM
- EC50 ([3]; Trypanosoma brucei, static cidal EC50, second site/phase, read-out: SC EC50(2)): > 50000 nM
- MCC ([3]; Trypanosoma brucei, static–cidal assay in triplicate, read-out: MCC (minimal cidal concentration)): > 50 µM
- mode of antiparasitic effect (in words) ([3]; text and figure legend, at concentrations tested): growth-slowing or static behaviour; also recorded: growth-slowing
- fraction unbound at 5 h, 10 μg g^−1 ([1]; female, CD1, equilibrium dialysis, read-out: PPB): 0.072
- protein binding (unbound) [1]: 7.2 % unbound
- PPB ([1]; equilibrium dialysis): 7.2 % free
- time to reach Cmax ([2]; dosed orally, 20 mg kg^−1): 15 min
- Tmax ([2]; ip, 20 mg/kg, 20 mg kg^−1, female NMRI mice): 4.98 min
- Tmax ([2]; po, 20 mg/kg, 20 mg kg^−1, female NMRI mice): 15 min
- Cmax [2, 5]: 5200 ng/mL
- half-life [2, 5]: 72 min
- AUC(0-t) [2, 5]: 3830 ng·h/mL
- Cmax [2, 6]: 910 ng/mL
- half-life [2, 6]: 102 min
- AUC(0-t) [2, 6]: 1150 ng·h/mL

Source: publication PMC4648050, “Discovery of Inhibitors of Trypanosoma brucei by Phenotypic Screening of a Focused Protein Kinase Library” (Chemmedchem, 2015)
